In patent US20250161254A1, “USE OF RETINOIDS FOR TREATMENT OF ATRIAL FIBRILLATION” (NEW YORK UNIVERSITY, priority 2022, published 2025):
“Also recorded” adds a separate entry of the source.

Legend:
[1] = test system: trans-aortic constriction (TAC) banded mice; assay: Electrocardiogram in TAC banded mice, ATRA protection study; assay type: in vivo; conditions: two weeks
Description: (§1) TAC banding creates a fixed afterload obstruction in the systemic circulation and serves as an excellent model for drug testing as the surgically-induced coarctation cannot be reversed by medical therapy.
On ECG, the P wave duration is a measure of atrial activation time, the PR interval is a measure of atrial-to-ventricular activation time that includes the atrio-ventricular nodal conduction time, the QRS duration is a measure of ventricular activation time, and the HR-corrected QT (QTc) interval is a measure of ventricular repolarization time. […] In TAC banded mice treated with vehicle control (TAC+V), the heart rate (HR) was increased, the P wave, QRS wave, and QTc interval durations were prolonged, and the PR interval was shortened compared to Sham groups.

[2] = test system: trans-aortic constriction (TAC) banded mice; assay: Transthoracic echocardiography in TAC banded mice, ATRA protection study; assay type: in vivo
Procedure: as §1
The effect of TAC banding on left atrial function was measured next by using reservoir strain analysis. 8,30 Left atrial reservoir strain analysis is a sensitive modality to study left atrial mechanics of both relaxation (conduit strain) and contraction (contractile strain) in an angle-independent fashion.

[3] = test system: TAC banded hearts; assay: Optical mapping of Langendorff-perfused hearts; assay type: ex vivo, mice; conditions: Sham+V, TAC+V and TAC+ATRA hearts compared
Procedure: Optical mapping of Langendorff-perfused hearts from Sham+V, TAC+V, and TAC+ATRA hearts. (FIG. 6A) Representative left atrial activation maps at 37° C. Hearts were paced at 100 ms basic cycle length (BCL) from the right atria. (FIG. 6B) Calculated LA conduction velocity (CV). (FIG. 6C) Calculated left ventricular CV (FIG. 6D) ECG tracing of sustained atrial arrythmia in TAC+V heart after atrial burst pacing protocol.^6 (FIG. 6E) Left atrial activation map of sustained atrial arrythmia shown in panel (FIG. 6D). Isochrones are drawn 1 ms apart. Data represent mean+S.E.M. n=4-5 per group. One-way ANOVA was used followed by Tukey's test for multiple comparisons to compare differences between experimental groups. * p-value<0.05, ** p-value<0.005, *** p-value<0.001, **** p-value<0.0001

[4] = test system: TAC banded hearts; assay: Atrial arrhythmia inducibility by atrial burst pacing; assay type: in vivo, mice; conditions: TAC+ATRA hearts
[5] = test system: TAC banded mice; assay: Left atrial fibrosis burden, ImageJ analysis on Masson's trichrome stained sections; assay type: in vivo; conditions: for collagen volume fraction in LA: 10 mg/kg/day IP, two weeks
Description: as §1

[6] = test system: LA samples from TAC banded hearts; assay: RNA-seq on LA samples from TAC+V and TAC+ATRA hearts; assay type: in vivo, mice
Description: Activation of the AngII signaling pathway in the LA from pressure overload is a powerful inducer of inflammation, fibrosis, and Cx43 gap junction remodeling. Blockade of AngII signaling can reduce atrial fibrosis and partially rescued Cx43 remodeling. ^38,39

[7] = test system: TAC banded mice; assay: ECG in ATRA reversal study (delayed ATRA initiation); assay type: in vivo; conditions: TAC+dATRA vs TAC+dV
[8] = test system: TAC banded mice; assay: ECG dose-response of ATRA in TAC banded mice; assay type: in vivo
[9] = test system: guinea pig HF model; conditions: cited from earlier work
[10] = test system: dissociated neonatal rat cardiac fibroblasts; conditions: fibroblasts exposed to AngII; cited from earlier work
[11] = test system: TLR/NF-KB signaling; conditions: diabetic kidney; cited from earlier work
[12] = test system: Mice deficient in ALDH1A2; conditions: maternal supplementation with oral ATRA; cited from earlier work
[13] = test system: chick embryos; conditions: excess ATRA; cited from earlier work
[14] = test system: TAC banded mice; assay: LA fibrosis burden in ATRA reversal study (delayed ATRA initiation); conditions: delayed treatment with ATRA, TAC banding
[15] = test system: ALDHIA1 and ALDH1A2; conditions: in vivo; cited from earlier work
[16] = test system: CYP26; conditions: rodents; cited from earlier work
[17] = TAC+ATRA vs TAC+V, ATRA 10 mg/kg/day IP
[18] = TAC+ATRA vs TAC+V, 10 mg/kg/day IP, two weeks, 10 mg/kg/day
[19] = GO / REACTOME analysis of normalized genes
[20] = TAC+ATRA versus TAC+V LA, P<0.05
[21] = TAC+ATRA vs TAC+V over the dose range

With `CC1=C(/C=C/C(C)=C/C=C/C(C)=C/C(=O)O)C(C)(C)CCC1` [ATRA, all-trans retinoic acid] the ECG measurements ([1]; Sham+ATRA vs Sham+V, normal pressure conditions, 10 mg/kg/day IP) was “no differences”, the “HR-corrected QT (QTc) interval” value [1, 17] was “prolonged equally; also recorded: unchanged” and the P wave duration [1, 17] was “prevents P wave prolongation; also recorded: reduced to normal levels”. For the same compound, the PR interval [1, 17] was “does not significantly alter; also recorded: unchanged”, the QRS duration [1, 17] was “prolonged equally; also recorded: unchanged” and the “heart rate (HR)” value [1, 17] was “unchanged”. For the same compound, the “echocardiographic measurements of the LA and LV” value ([2]; Sham+ATRA vs Sham+V, normal pressure conditions) was “no differences”, the “LV fractional shortening (FS)” value [2, 18] was “equally reduced” and the LV longitudinal strain [2, 18] was “equally reduced”. For the same compound, the “left atrial mechanics (reservoir strain)” value [2, 18] was “significant improvement; also recorded: significantly improved”, the “left ventricular hypertrophy (LV wall thickness)” value [2, 18] was “increased in both TAC+V and TAC+ATRA cohorts” and the “left ventricular CV” value [3] was “not significantly different”. For the same compound, the “hearts with sustained atrial arrhythmia (lasting >30 sec) after atrial burst pacing” value [4] was 0 out of 3, the “collagen volume fraction in LA” value ([5]; Sham+ATRA) was 5.3±0.1% and the “left atrial interstitial and perivascular fibrosis” value ([5]; TAC+ATRA vs TAC+V) was “reduced; also recorded: limits”. For the same compound, the “collagen volume fraction in LA” value ([5]; TAC+ATRA) was 8.3±0.6%, the “pathways of ECM production, pro-inflammatory signaling and vasoconstriction” value [6, 19] was “significantly downregulated” and the “pathways of mitochondrial energy production and cardiac/atrial development” value [6, 19] was “significantly upregulated”. For the same compound, the “left atrial Scn5a expression” value ([6]; TAC banded hearts) was “increases”, the differentially expressed transcripts [6, 20] was 4133 transcripts and the transcripts downregulated [6, 20] was 2058 transcripts. The transcripts upregulated [6, 20] was 2075 transcripts, the “DEGs moving in reciprocal direction to the [TAC vs Sham] dataset (normalization)” value ([6]; [TAC+ATRA vs TAC+V] dataset) was 1987 DEGs and the “expression of PDGF-A and PDGF-B” value ([6]; pressure overloaded LA) was “reduced expression”. The “expression of TLR2, NF-KB signaling components, NLRP3 and IL-1b” value ([6]; pressure overloaded LA) was “downregulated”, the “expression of angiotensin converting enzyme (ACE)” value ([6]; pressure overloaded LA) was “significantly downregulated” and the P wave duration ([7]; 10 mg/kg/day IP started two weeks post-TAC, for two weeks, 10 mg/kg/day) was “significantly reduces”. The PR interval ([7]; delayed treatment) was “not significantly different; also recorded: unchanged”, the QRS duration ([7]; delayed treatment) was “not significantly different; also recorded: unchanged” and the QTc interval ([7]; delayed treatment) was “not significantly different; also recorded: unchanged”. For the same compound, the “heart rate (HR)” value ([7]; delayed treatment) was “unchanged”, the “P wave duration shortening” value ([8]; 20 mg/kg dose compared with 10) was “no further shortening” and the “reduction of P wave prolongation, dose dependence” value ([8]; 2, 5, 10, 20 mg/kg daily IP, two weeks) was “dose-dependent fashion”. The “ventricular ectopy (potential cardiotoxicity)” value ([8]; ATRA 20 mg/kg daily IP) was “increased ventricular ectopy”, the PR interval [8, 21] was “no significant dose-dependent effect; also recorded: not significantly changed” and the QRS duration [8, 21] was “no significant dose-dependent effect; also recorded: not significantly changed”. The heart rate [8, 21] was “no significant dose-dependent effect; also recorded: not significantly changed”, the “ATRA dose of maximal P wave duration shortening” value ([8]; daily IP, two weeks) was 10 m/kg and the “left ventricular systolic function” value [9] was “improve”. For the same compound, the ventricular fibrosis [9] was “reduce”, the TGF-β production [10] was “reduces” and the collagen secretion [10] was “reduces”. For the same compound, the proliferation [10] was “reduces”, the “production of inflammatory cytokines, chemokines, adhesion molecules and growth factors” value [11] was “block cytokine, chemokine, and growth factor production; also recorded: blocks production” and the atrial defects [12] was “rescue the atrial defects”. The atrial size [13] was “developed enlarged atria” and the “interstitial and perivascular fibrosis” value [14] was “reverses”.

In the case of `O=C(NCCCCCCCCNC(=O)C(Cl)Cl)C(Cl)Cl` [WIN18446], the ATRA biosynthesis [15] is listed as “efficiently block ATRA biosynthesis”.

For `CCC(CC)C(c1ccc(Nc2nc3ccccc3s2)cc1)n1cncn1` (stereo not shown) [talarozole], the ATRA levels [16] is listed as “effectively increase ATRA levels”.
